Data on six compounds can be found in patent US20210346459A1, “Application of Dalargin for the prevention of VRIs and prevention of the development of complications during VRIs” (priority 2020, published 2021).

One series deals with MDCK. Nature of the series: 50% cytotoxic concentration, cell line used for influenza virus. As to conditions: PR8 (influenza virus) section.
The test system of series [1] is influenza virus A/Puerto Rico/8/34 (H1N1).
The subject of series [2] is human adenovirus 5.
A short description of another series: in vitro. The note with it: African green monkey.
The test system of series [3] is human adenovirus 5. Kind of series: organism not typed. The note with it: Vero.
The subject of series [4] is influenza virus A/California/04/2009. Format: in vivo, mice.
The test system of series [5] is influenza virus A/Puerto Rico/8/34 (H1N1). It is filed as in vivo, Balb/c mice. The note with it: Group 2: Tamiflu 20 mg/kg once a day intragastrically.
A further series deals with mu receptors (Homo sapiens, UniProt P35372). The note with it: metabolite of Dalargin; cited from earlier work.
The mark [6] stands for this setting: Group 2: Ingavirin 15 mg/kg intragastrically once a day, therapeutic.
The mark [7] stands for this setting: Group 2: Ingavirin 15 mg/kg intragastrically once a day, therapeutic, 30 animals.
[8] abbreviates: Group 3: Arbidol 130 mg/kg intragastrically once a day, therapeutic.
Setting [9] is: Group 3: Arbidol 130 mg/kg intragastrically once a day, therapeutic, 30 animals.

In brackets after ≈: the same amount, converted by molar mass. Where two headings read alike, the source gives them in different places. Marks after values point to notes of the source that are not given here. Some results are limits rather than exact numbers.

Sequence of mu receptors (P35372 whole entry): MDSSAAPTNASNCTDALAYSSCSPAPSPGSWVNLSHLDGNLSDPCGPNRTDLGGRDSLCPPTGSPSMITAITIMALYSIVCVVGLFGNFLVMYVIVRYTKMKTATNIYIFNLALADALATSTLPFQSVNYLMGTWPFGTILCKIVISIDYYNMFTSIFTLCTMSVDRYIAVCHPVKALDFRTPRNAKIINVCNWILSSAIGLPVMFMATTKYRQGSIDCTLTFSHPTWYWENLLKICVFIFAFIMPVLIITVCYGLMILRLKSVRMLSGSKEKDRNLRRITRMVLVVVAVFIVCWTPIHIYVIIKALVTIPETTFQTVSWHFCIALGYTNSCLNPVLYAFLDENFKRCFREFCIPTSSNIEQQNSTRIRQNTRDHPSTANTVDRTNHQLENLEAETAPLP

`CC(N)C12CC3CC(CC(C3)C1)C2` (stereo not shown) [Remantadin] came in with a CC50 with MDCK of 64 µg/mL (≈ 357 µM). The same compound returned an SI in series [1] (CC50/IC50, PR8 (influenza virus)) of 5. In addition, in series [1] (PR8 (influenza virus), MDCK), the IC50 was 11 µg/mL (≈ 61.3 µM). The “Antiviral properties (in words)” value in series [1] (influenza virus, MDCK) is given as “did not exhibit antiviral properties”.
As to `Nc1nc2c(ncn2COCCO)c(=O)[nH]1` [Aciclovir], the SI in the series with human adenovirus 5 [2] (CC50/IC50, Ad5 (adenovirus)) was 1. Further, the “Antiviral properties (in words)” value in the series on human adenovirus 5 [2] (adenovirus, Vero) is “did not exhibit antiviral properties”. The same compound yielded a CC50 in the series “in vitro” above 30 µg/mL. Besides, the IC50 in the series on human adenovirus 5 [3] is above 30 µg/mL.
`O=C(O)CCCC(=O)NCCc1c[nH]cn1` [Ingavirin]: in series [4] (setting [6]), the “Mortality, %” value stood at 53.33% and the “Protective index, %” value worked out at 44.83%. Also, in series [4] (setting [7]), the “Mortality by day 6” value was found to be 4, the “Mortality by day 7” value came out at 6, the “Mortality by day 8” value was determined as 3 and the “Mortality by day 9” value worked out at 2. In addition, in series [4] (setting [7]), the “Mortality by day 10” value stood at 1 and the Residue came to 14. Besides, in series [4] (mouse, in vivo), the “Mortality by day 5” value is on record as 3, the “Mortality by day 6” value came out at 4, the “Mortality by day 7” value came to 4 and the “Mortality by day 8” value is reported as 7. In series [4] (mouse, in vivo), the “Mortality by day 9” value is given as 4; the “Mortality by day 10” value is on record as 2; the “Mortality, %” value came to 80.00%; the “Protective index, %” value came out at 17.24%. In series [4] (mouse, in vivo), this compound registered a Residue of 6.
As for `CCOC(=O)c1c(CSc2ccccc2)n(C)c2cc(Br)c(O)c(CN(C)C)c12` [Arbidol], in series [4] (setting [8]), the “Mortality, %” value came out at 70.00% and the “Protective index, %” value is recorded as 27.59%. In series [4] (setting [9]), the “Mortality by day 5” value is given as 2, the “Mortality by day 6” value is reported as 2, the “Mortality by day 7” value stood at 7 and the “Mortality by day 8” value is 5. Also, in series [4] (setting [9]), the “Mortality by day 9” value worked out at 3, the “Mortality by day 10” value worked out at 2 and the Residue amounted to 9.
As to `CCOC(=O)C1=C[C@@H](OC(CC)CC)[C@H](NC(C)=O)[C@@H](N)C1` [Tamiflu, oseltamivir], in series [5], the “Mortality, %” value is reported as 10.00% and the “Protective index, %” value was determined as 88.46%. Also, in series [5] (30 animals), the “Mortality by day 9” value turned out to be 2, the “Mortality by day 10” value was determined as 1 and the Residue is 27*.
As for Tyr-D-Ala-Gly-Phe, the “Affinity to mu receptors” value on mu receptors is “exhibits affinity to mu receptors”.
